Literature values, collected in patent publication US12484617B2, “Oral pouch product” (Altria Client Services LLC, priority 2022, dated 2025).

Settings: free base (non-protonated)

SMILES: CN1CCCC1c1cccnc1 (stereo not shown) [Free-base nicotine, 3-(1-methyl-2-pyrrolidinyl)pyridine]
- pKa value: about 8
